# Results reported in patent publication US20190256929A1, “PHARMACODYNAMIC BIOMARKERS FOR PERSONALIZED CANCER CARE USING EPIGENETIC MODIFYING AGENTS” (ORYZON GENOMICS, S.A., priority 2016, published 2019).
# Tests used:
# [1] = tested on: patient derived xenograft (PDX) small cell lung cancer models, ex vivo cultures; assay: qRT-PCR of PD markers Notch1 and ASCL1 in ex vivo cultures of SCLC patient derived xenograft (PDX) models; assay type: cell-based, human; settings: 1 nM, 120 hours
# Procedure: To confirm the results obtained for the panel for small cell lung cancer cell lines, changes in PD markers Notch1 and ASCL1 were evaluated in a panel of patient derived xenograft (PDX) small cell lung cancer models. The initiation and characterization of PDX models LX48, LX108, LX110, LX33 have been described previously (Hann, C. L., et al. 2008, Cancer Research. 68, 2321-2328; Poirier et al. (2013). J. Natl. Cancer Inst. 105, 1059-1065; Leong et al. PLoS One. 2014; 9:e106862). PDX models, FHSC04 and FHSC14 were generated from blood samples obtained from patients with extensive-stage SCLC, following the methodology described by the Dive lab (Hodgkinson et al. 2014 Nat Med August 20(8), 897-903). Ex vivo cultures were treated with 1 nM (trans)-N1-((1R,2S)-2-Phenylcyclopropyl)cyclohexane-1,4-diamine in 96 well plates (10,000 cells/well) for 120 hours. RNA was extracted in TRIzol (Invitrogen) and isolated according to the manufacturer's protocol. cDNA was generated using the iScript synthesis kit (Bio-Rad) according to the manufacturer's protocol. qPCR experiments were run on a Biorad qPCR instrument (CFX384). Data were normalized to GAPDH. FIG. 12 contains the results of the qRT-PCR using the following primers.
# SCLC 510A xenografts = assay: RNA-seq PD gene change in H510A SCLC xenograft mouse model; assay type: in vivo, mice; settings: for ASCL1 Log2FC / GRP Log2FC / NOTCH1 Log2FC: vs vehicle
# Procedure: Female athymic nude mice, approximately 7-8-week old animals, were injected with 5 million H510A cells per 50 μL PBS and 50 μL Matrigel (BD Bioscience) into the right flank of each animal. After tumor growth reached 200-300 mm3, animals were distributed in three homogeneous groups with similar mean tumor volume and SD. Animals were treated with vehicle, 20 μg/Kg and 40 μg/Kg of (trans)-N1-((1R,2S)-2-phenylcyclopropyl)cyclohexane-1,4-diamine for 3 weeks according to the 5 days on/2 days off schedule.
# Mice were sacrificed at day 35 at 1, 6 and 24 hours post last injection. Blood was extracted in Microvette® (Sarstedt) tubes, centrifuged on a bench-top centrifuge at 2000 rpm for 15 min at 4 C. Supernatant was stored at −80° C. Tumors were removed and divided in 3 parts: ⅓ was immersed in RNA-Later and snap frozen for subsequent analysis. Frozen material was stored at −80° C. before shipment.
# Whole transcriptomic RNA sequencing procedure is identical to that as described in Example 1. Raw RNASeq reads were aligned to the mouse and the human transcriptome using GSNAP and were then analyzed. Reads mapped to both organisms were filtered out and only reads that were uniquely aligned to human or mouse were used to profile the respective genes. The log 2 fold change of three candidate PD markers between (trans)-N1-((1R,2S)-2-phenylcyclopropyl)cyclohexane-1,4-diamine treated and vehicle treated samples were calculated using DESeq2 package (Love et al.).
# [2] = 20 μg/kg, 1 h post last injection
# [3] = 20 μg/kg, 6 h post last injection
# [4] = 20 μg/kg, 24 h post last injection
# [5] = 40 μg/kg, 1 h post last injection
# [6] = 40 μg/kg, 6 h post last injection
# [7] = 40 μg/kg, 24 h post last injection
smiles,measurement,setting,value
"N[C@H]1CC[C@H](N[C@@H]2C[C@H]2c2ccccc2)CC1 [RG6016, (trans)-N1-((1R,2S)-2-phenylcyclopropyl)cyclohexane-1,4-diamine]",Regulation of ASCL1 (FIG. 12),[1],down
same,Regulation of NOTCH1 (FIG. 12),[1],up
same,ASCL1 Log2FC,SCLC 510A xenografts; [2],−0.525
same,GRP Log2FC,SCLC 510A xenografts; [2],−1.607
same,NOTCH1 Log2FC,SCLC 510A xenografts; [2],1.947
same,ASCL1 Log2FC,SCLC 510A xenografts; [3],−0.545
same,GRP Log2FC,SCLC 510A xenografts; [3],−0.794
same,NOTCH1 Log2FC,SCLC 510A xenografts; [3],1.388
same,ASCL1 Log2FC,SCLC 510A xenografts; [4],−0.472
same,GRP Log2FC,SCLC 510A xenografts; [4],−1.205
same,NOTCH1 Log2FC,SCLC 510A xenografts; [4],1.679
same,ASCL1 Log2FC,SCLC 510A xenografts; [5],−0.783
same,GRP Log2FC,SCLC 510A xenografts; [5],−1.75
same,NOTCH1 Log2FC,SCLC 510A xenografts; [5],2.727
same,ASCL1 Log2FC,SCLC 510A xenografts; [6],−0.825
same,GRP Log2FC,SCLC 510A xenografts; [6],−1.421
same,NOTCH1 Log2FC,SCLC 510A xenografts; [6],2.321
same,ASCL1 Log2FC,SCLC 510A xenografts; [7],−1.286
same,GRP Log2FC,SCLC 510A xenografts; [7],−2.742
same,NOTCH1 Log2FC,SCLC 510A xenografts; [7],3.423
same,ASCL1 transcript down regulation (FIG. 9),SCLC 510A xenografts; SCLC 510A xenografts,dose and time dependent
same,GRP transcript down regulation (FIG. 10),SCLC 510A xenografts; SCLC 510A xenografts,dose and time dependent
same,NOTCH1 transcript up regulation (FIG. 11),SCLC 510A xenografts; SCLC 510A xenografts,dose and time dependent
